Assay results published in article PMC5589937 (Scientific Reports, 2017).
Read-outs that look alike come from different tables or passages of the source.

T1: hGIIE N21G (Homo sapiens, UniProt Q9NZK7, N40G)
T1 construct: The gene encoding for hGIIE protein without signal peptide was amplified by PCR; made in house; host or cells: Pichia pastoris X33 (vector pGAPZαA)
T1 sequence (Q9NZK7 20-142 N40G): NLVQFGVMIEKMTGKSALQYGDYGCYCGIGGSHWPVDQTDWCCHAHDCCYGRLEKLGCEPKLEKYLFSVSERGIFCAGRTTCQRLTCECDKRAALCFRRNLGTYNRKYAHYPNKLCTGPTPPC

T2: hGIIE (Homo sapiens, UniProt Q9NZK7)
T2 construct: The gene encoding for hGIIE protein without signal peptide was amplified by PCR; made in house; host or cells: Pichia pastoris X33 (vector pGAPZαA)
T2 sequence (Q9NZK7 20-142): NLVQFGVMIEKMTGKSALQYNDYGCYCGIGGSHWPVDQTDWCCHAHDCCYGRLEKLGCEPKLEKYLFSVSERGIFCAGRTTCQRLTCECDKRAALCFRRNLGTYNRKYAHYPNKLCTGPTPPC

T3: WT hGIIE (Homo sapiens, UniProt Q9NZK7)
T3 construct: The gene encoding for hGIIE protein without signal peptide was amplified by PCR; made in house; host or cells: Pichia pastoris X33 (vector pGAPZαA)
T3 sequence (Q9NZK7 20-142): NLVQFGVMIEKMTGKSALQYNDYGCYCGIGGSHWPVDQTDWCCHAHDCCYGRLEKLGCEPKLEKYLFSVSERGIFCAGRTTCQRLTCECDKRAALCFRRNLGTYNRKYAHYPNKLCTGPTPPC

T4: hGIIE F97L (Homo sapiens, UniProt Q9NZK7, F116L)
T4 construct: The gene encoding for hGIIE protein without signal peptide was amplified by PCR; made in house; host or cells: Pichia pastoris X33 (vector pGAPZαA)
T4 sequence (Q9NZK7 20-142 F116L): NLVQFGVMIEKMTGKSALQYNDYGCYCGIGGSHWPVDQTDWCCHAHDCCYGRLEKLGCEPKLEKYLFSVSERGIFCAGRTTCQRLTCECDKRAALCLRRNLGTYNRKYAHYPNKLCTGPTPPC

T5: hGIIE F5L_F97L (Homo sapiens, UniProt Q9NZK7, F116L/F24L)
T5 construct: The gene encoding for hGIIE protein without signal peptide was amplified by PCR; made in house; host or cells: Pichia pastoris X33 (vector pGAPZαA)
T5 sequence (Q9NZK7 20-142 F24L/F116L): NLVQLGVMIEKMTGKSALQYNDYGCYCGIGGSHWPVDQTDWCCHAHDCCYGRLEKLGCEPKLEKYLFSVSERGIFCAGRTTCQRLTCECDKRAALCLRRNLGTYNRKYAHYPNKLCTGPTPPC

T6: hGIIE N21M (Homo sapiens, UniProt Q9NZK7, N40M)
T6 construct: The gene encoding for hGIIE protein without signal peptide was amplified by PCR; made in house; host or cells: Pichia pastoris X33 (vector pGAPZαA)
T6 sequence (Q9NZK7 20-142 N40M): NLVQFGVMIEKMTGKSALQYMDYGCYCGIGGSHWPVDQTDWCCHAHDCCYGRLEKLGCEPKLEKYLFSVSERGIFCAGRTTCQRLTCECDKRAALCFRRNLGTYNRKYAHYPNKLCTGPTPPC

T7: hGIIE G6H (Homo sapiens, UniProt Q9NZK7, G25H)
T7 construct: The gene encoding for hGIIE protein without signal peptide was amplified by PCR; made in house; host or cells: Pichia pastoris X33 (vector pGAPZαA)
T7 sequence (Q9NZK7 20-142 G25H): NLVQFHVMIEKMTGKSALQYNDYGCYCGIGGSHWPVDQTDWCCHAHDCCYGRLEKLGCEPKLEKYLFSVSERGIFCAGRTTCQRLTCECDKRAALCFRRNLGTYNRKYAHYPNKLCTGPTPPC

T8: hGIIE G6N (Homo sapiens, UniProt Q9NZK7, G25N)
T8 construct: The gene encoding for hGIIE protein without signal peptide was amplified by PCR; made in house; host or cells: Pichia pastoris X33 (vector pGAPZαA)
T8 sequence (Q9NZK7 20-142 G25N): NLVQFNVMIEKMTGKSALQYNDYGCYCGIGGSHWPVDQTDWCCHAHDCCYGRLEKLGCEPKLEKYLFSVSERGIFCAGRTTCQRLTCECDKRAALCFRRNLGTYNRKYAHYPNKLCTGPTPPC

T9: hGIIE F5L (Homo sapiens, UniProt Q9NZK7, F24L)
T9 construct: The gene encoding for hGIIE protein without signal peptide was amplified by PCR; made in house; host or cells: Pichia pastoris X33 (vector pGAPZαA)
T9 sequence (Q9NZK7 20-142 F24L): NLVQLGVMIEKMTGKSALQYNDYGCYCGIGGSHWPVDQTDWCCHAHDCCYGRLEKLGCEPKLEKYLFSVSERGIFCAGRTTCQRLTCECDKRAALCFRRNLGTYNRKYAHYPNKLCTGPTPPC

T10: hGIIE N21W (Homo sapiens, UniProt Q9NZK7, N40W)
T10 construct: The gene encoding for hGIIE protein without signal peptide was amplified by PCR; made in house; host or cells: Pichia pastoris X33 (vector pGAPZαA)
T10 sequence (Q9NZK7 20-142 N40W): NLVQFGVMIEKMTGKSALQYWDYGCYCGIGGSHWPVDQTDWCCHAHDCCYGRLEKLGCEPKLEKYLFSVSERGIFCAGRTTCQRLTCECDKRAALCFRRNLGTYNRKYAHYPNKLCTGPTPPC


How the values were obtained:
[1] = molecular target: T1, hGIIE N21G; test: Inhibition of hGIIE mutant N21G, sPLA2 assay kit; format: biochemical; settings: N21G enzyme 32.86 µM; mean ± s.d., n=2; read-out: IC50 against hGIIE N21G
Method: (§1) Enzymatic Kinetics of hGIIE assay was carried out using sPLA2 Assay kit (Cayman, Ann Arbor, MI, USA). Substrate of this assay is 1, 2-Diheptanoyl Thio-phosphatidylcholine (DTPC). After hydrolysis of the thio ester bond in the sn-2 position by phospholipase A2, free thiols are detected using 5, 5-dithio-bis-nitrobenzoic acid (DTNB). Activity assay was carried out on a 96-well plate at 25 °C. 10 µL DTNB, 10 µL protein sample and 5 µL buffer (25 mM Tris-HCl, pH 7.5, 10 mM CaCl2, 100 mM KCl, 0.3 mM Triton X-100) were pooled in the well, then the reaction was initiated by adding 200 µL substrate solution to the well simultaneously. Absorbance at 414 nm was measured every 1 min for 15 min. […] Protein concentration was adjusted to ensure the absorbance increase of 0.01 to 0.1 per minute. Curve was fitted to Michaelis-Menten equation and Lineweaver-Burk plot for the estimation of Km and Vmax using GraphPad Prism 5, Kcat was calculated by Vmax/enzyme concentration.
(§2) Inhibition of wild type (WT) and mutated hGIIE was analyzed using sPLA2 assay kit as mentioned above. In the assay system, 5 µL assay buffer was replaced by 5 µL of the inhibitor. Different concentrations of compound 8, 14, 24, Me-Indoxam, and LY311727 were prepared. The final concentration of enzyme used per well are as following: WT: 6.42 µM; F5L: 6.4 µM; F97L: 10.48 µM; F5L_F97L: 6.73 µM; G6H: 10.91 µM; G6N: 7.56 µM; N21G: 32.86 µM; N21M: 22.14 µM; N21W: 30 µM. Control reactions without enzyme or inhibitor were carried out. Percent inhibition of every well were calculated. Curve was fitted to the log (inhibitor)-response variable slope and IC50 was calculated using GraphPad Prism 5 (GraphPad).

[2] = molecular target: T2, hGIIE; settings: cited from earlier work
[3] = molecular target: T3, WT hGIIE; test: Inhibition of wild type hGIIE, sPLA2 assay kit (DTPC substrate, DTNB detection); format: biochemical; settings: WT enzyme 6.42 µM per well; mean ± s.d., n=2; read-out: IC50 against WT hGIIE
Method: as §1, §2

[4] = molecular target: T4, hGIIE F97L; test: Inhibition of hGIIE mutant F97L, sPLA2 assay kit; format: biochemical; settings: F97L enzyme 10.48 µM; mean ± s.d., n=2; read-out: IC50 against hGIIE F97L
Method: as §1, §2

[5] = molecular target: T5, hGIIE F5L_F97L; test: Inhibition of hGIIE double mutant F5L_F97L, sPLA2 assay kit; format: biochemical; settings: F5L_F97L enzyme 6.73 µM; mean ± s.d., n=2; read-out: IC50 against hGIIE F5L_F97L
Method: as §1, §2

[6] = molecular target: T6, hGIIE N21M; test: Inhibition of hGIIE mutant N21M, sPLA2 assay kit; format: biochemical; settings: N21M enzyme 22.14 µM; mean ± s.d., n=2; read-out: IC50 against hGIIE N21M
Method: as §1, §2

[7] = molecular target: T7, hGIIE G6H; test: Inhibition of hGIIE mutant G6H, sPLA2 assay kit; format: biochemical; settings: G6H enzyme 10.91 µM; mean ± s.d., n=2; read-out: IC50 against hGIIE G6H
Method: as §1, §2

[8] = molecular target: T8, hGIIE G6N; test: Inhibition of hGIIE mutant G6N, sPLA2 assay kit; format: biochemical; settings: G6N enzyme 7.56 µM; mean ± s.d., n=2; read-out: IC50 against hGIIE G6N
Method: as §1, §2

[9] = molecular target: T9, hGIIE F5L; test: Inhibition of hGIIE mutant F5L, sPLA2 assay kit; format: biochemical; settings: F5L enzyme 6.4 µM; mean ± s.d., n=2; read-out: IC50 against hGIIE F5L
Method: as §1, §2

[10] = system: hGIIA; settings: measure not given; read-out: potency to hGIIA; cited from earlier work
[11] = molecular target: T10, hGIIE N21W; test: Inhibition of hGIIE mutant N21W, sPLA2 assay kit; format: biochemical; settings: N21W enzyme 30 µM; mean ± s.d., n=2; read-out: IC50 against hGIIE N21W
Method: as §1, §2

[12] = system: hGV; settings: cited from earlier work
[13] = system: cardiovascular diseases; settings: treatment of cardiovascular diseases; cited from earlier work
[14] = system: rheumatoid arthritis; set-up: method as in PMID 15742431; settings: clinically tested; cited from earlier work
[15] = system: hGX; settings: cited from earlier work
[16] = system: hGIID; set-up: method as in PMID 15028265; settings: cited from earlier work
[17] = system: hGIB; set-up: method as in PMID 16686528; settings: cited from earlier work
[18] = system: severe sepsis; set-up: method as in PMID 16096451; settings: trials terminated; experiment group; cited from earlier work
[19] = substrate: CCCCCC(=O)OC[C@H](COP(=O)([O-])OCC[N+](C)(C)C)OC(=O)CCCCC; test: purified protein, by the assay type; settings: other: ITC, 25 °C, 2 µM hGIIE, pH 7.5, 10 mM CaCl2
Method: Reactions were performed with Microcal ITC200 (GE Healthcare) at 25 °C, and data were collected and analyzed by ORIGIN. A multiple injection kinetic assay was conducted using a stirring speed of 750 rpm. 2 µM protein hGIIE (200 µL) in the reaction cell was titrated with 13 × 3 µL injection of phospholipid (10–50 mM) using a 120 s delay between successive injections. The apparent enthalpy (ΔH) for the hydrolysis of phospholipid by hGIIE was determined in a separate experiment in which 1 × 6 µL injections of phospholipid into 2 µM protein hGIIE (200 µL) was made using spacing 1800 s. Buffer solution was carefully matched in both the ligand and enzyme solutions. Mother liquor of phospholipids including DHPG (in water), DHPC (in DMSO), DHPE (in DMSO) (Avanti) with 200 mM concentration were prepared. Working buffer (20 mM DHPG, 50 mM DHPC, 10 mM DHPE) is prepared by diluting the mother liquor with buffer 100 mM Tris, 150 mM KCl, 10 mM CaCl2, pH 7.5.

| Molecule | IC50 [1] [µM] | IC50 [3] [µM] | IC50 [4] [µM] | IC50 [5] [µM] | IC50 [6] [µM] | IC50 [7] [µM] | IC50 [8] [µM] | IC50 [9] [µM] | IC50 [11] [µM] | IC50 ([2]; read-out: IC50 hGIIE) [µM] | IC50 [12] [µM] | further results |
| --- | --- | --- | --- | --- | --- | --- | --- | --- | --- | --- | --- | --- |
| Cc1c(C(=O)C(N)=O)c2c(OCC(=O)O)cccc2n1Cc1ccccc1-c1ccccc1 [Me-Indoxam] | 1.84 ± 0.03 | 0.21 ± 0.01 | 0.26 ± 0.02 | 0.24 ± 0.03 | 0.88 ± 0.01 | 0.3 ± 0.02 | 0.14 ± 0.02 | 0.16 ± 0.01 | 1.44 ± 0.13 |  |  | IC50 ([2]; measure not given, read-out: potency to hGIIE): 0.008 µM; IC50 [10]: 0.03 µM |
| Cc1c(C(=O)C(N)=O)c2c(OCC(=O)O)cccc2n1Cc1cccc(Br)c1 [Compound 14] | 1.73 ± 0.05 | 0.22 ± 0.02 | 0.28 ± 0.07 | 0.3 ± 0.02 | 0.84 ± 0.03 | 0.88 ± 0.31 | 0.23 ± 0.03 | 0.13 ± 0.04 | 1.94 ± 0.22 | < 0.025 | < 0.33 |  |
| CCc1c(C(=O)C(N)=O)c2c(OCC(=O)OC)cccc2n1Cc1ccccc1 [Varespladib methyl] |  |  |  |  |  |  |  |  |  |  |  | adverse effects in phase three trials [13]: increased events of cardiovascular mortality, heart attack, and stroke; efficacy in treatment of rheumatoid arthritis [14]: ineffective |
| Cc1c(C(=O)C(N)=O)c2c(OCC(=O)O)cccc2n1Cc1ccccc1C(F)(F)F [Compound 24] | 2.39 ± 0.4 |  | 0.25 ± 0.02 | 0.14 ± 0.01 | 0.83 ± 0.22 | 0.54 ± 0.03 | 0.27 ± 0.03 | 0.11 ± 0.01 | 1.87 ± 0.18 | < 0.025 | < 0.33 | decreased effect against hGX than hGIIE [15]: about 50 fold; decreased effect against hGIID in comparison to hGIIE [16]: over 100 fold |
| CCc1c(C(=O)C(N)=O)c2c(OCC(=O)O)cccc2n1Cc1ccccc1 [LY315920, Varespladib] |  |  |  |  |  |  |  |  |  |  | 0.5 | IC50 [17]: 0.75 µM; IC50 [15]: 0.075 µM |
| Cc1c(C(=O)C(N)=O)c2c(OCC(=O)O)cccc2n1Cc1cccc2ccccc12 [Compound 8] | 0.63 ± 0.02 | 0.28 ± 0.03 | 0.48 ± 0.03 | 0.25 ± 0.04 | 1.05 ± 0.02 | 3.76 ± 0.86 | 0.63 ± 0.05 | 0.25 ± 0.06 | 1.27 ± 0.22 | < 0.025 | < 0.33 |  |
| CCc1c(CC(N)=O)c2cc(OCCCP(=O)(O)O)ccc2n1Cc1ccccc1 [LY311727] | 5.13 ± 1.07 |  | 1.12 ± 0.02 | 1 ± 0.22 | 5.98 ± 0.4 | 14.3 ± 0.39 | 3.07 ± 0.42 | 1.79 ± 0.14 | 18 ± 1.37 |  |  |  |
| CCc1c(C(=O)C(N)=O)c2c(OCC(=O)[O-])cccc2n1Cc1ccccc1.[Na+] [LY315920: Na] |  |  |  |  |  |  |  |  |  |  |  | outcome of clinical trials in severe sepsis [18]: higher mortality rate |
| hGIIE (Homo sapiens) (protein) NLVQFGVMIEKMTGKSALQYNDYGCYCGIGGSHWPVDQTDWCCHAHDCCYGRLEKLGCEPKLEKYLFSVSERGIFCAGRTTCQRLTCECDKRAALCFRRNLGTYNRKYAHYPNKLCTGPTPPC |  |  |  |  |  |  |  |  |  |  |  | Km [19]: 5.52 ± 1.00 mM; kcat [19]: 3.22 ± 0.30 s⁻¹ |
